Measurements as given in US10047036B2, “Method for the synthesis of hydroxy-triglycerides and uses thereof for the prevention and treatment of diseases” (UNIVERSITAT DE LES ILLES BALEARS, priority 2014, dated 2018).
pIC50: −log10 of the molar value.

What was measured:
[1] = system: A549 (lung); assay: growth inhibition of human tumour cells, 72 h incubation; format: cell-based; conditions: 72 hours of incubation
Procedure: (§1) On the one hand, human cells of different types of cancer were used. The cells were incubated at 37° C. and 5% of CO2 in air, in culture medium RPMI1640 or DMEM with bovine foetal serum (10%) and other supplements and in the presence or absence of the triglycerides of the present invention at different concentrations during 72 hours. It was possible to observe that the hydroxy-triglycerides of the invention have a high efficacy against the growth of human tumour cells, but not against the growth of normal non-tumour cells (human fibroblasts, MRC5).

[2] = system: BXPC3 (pancreas); assay: as above; format: cell-based; conditions: 72 hours of incubation
Procedure: as §1

[3] = system: HL-60 (myeloblastic leukaemia); assay: as above; format: cell-based; conditions: 72 hours of incubation
Procedure: as §1

[4] = system: HT-29 (colon); assay: as above; format: cell-based; conditions: 72 hours of incubation
Procedure: as §1

[5] = system: HeLa (cervix); assay: as above; format: cell-based; conditions: 72 hours of incubation
Procedure: as §1

[6] = system: HepG2 (liver carcinoma); assay: as above; format: cell-based; conditions: 72 hours of incubation
Procedure: as §1

[7] = system: Jurkat (lymphoblastic leukaemia); assay: as above; format: cell-based; conditions: 72 hours of incubation
Procedure: as §1

[8] = system: MDA-MB231 (breast); assay: as above; format: cell-based; conditions: 72 hours of incubation
Procedure: as §1

[9] = system: MIA-PaCa-2 (pancreas); assay: as above; format: cell-based; conditions: 72 hours of incubation
Procedure: as §1

[10] = system: PC3 (prostate); assay: as above; format: cell-based; conditions: 72 hours of incubation
Procedure: as §1

[11] = system: SF767 (glioma); assay: as above; format: cell-based; conditions: 72 hours of incubation
Procedure: as §1

[12] = system: SH-SY5Y (neuroblastoma); assay: as above; format: cell-based; conditions: 72 hours of incubation
Procedure: as §1

[13] = system: U87M (glioma); assay: as above; format: cell-based; conditions: 72 hours of incubation
Procedure: as §1

[14] = body weight of SHR rats; format: in vivo; conditions: 14 days, 600 mg/kg, 12 h, p.o., basal weight 342 grams
Source text: Metabolic and cardiovascular pathologies are closely related. The overfeeding which characterises our society not only gives rise to problems of obesity and excess weight. It is also linked to the appearance of diabetes, dyslipidaemia, hypertension, strokes, arteriosclerosis, ictus, etc. All of these pathologies increase the risk of premature death and can even cause death. In this sense, certain natural oils show a certain efficacy against this type of pathologies, but their power is limited. In contrast, the molecules of the invention have an important effect against the development of this type of pathologies. To be able to study the effects of the compounds of the invention for the prevention and treatment of metabolic and cardiovascular pathologies, hypertensive rats were used (SHR strain, spontaneously hypertensive rats). These rats present obesity, high blood pressure, dyslipidaemia (hypercholesterolemia and hypertriglyceridemia), diabetes, metabolic syndrome and other related health problems.

[15] = target: T1, Glycogen Branching Enzyme 1 (GBE1) variant Y329S (Homo sapiens, UniProt Q04446, Y329S); assay: activity of purified enzyme GBE1 Y329S in the presence of PC membranes; format: biochemical; conditions: PC membranes with TGM 20 mol %; non-mutated enzyme = 100% (0.76 nmol/min · ng protein)
T1 sequence (Q04446 1-702 Y329S): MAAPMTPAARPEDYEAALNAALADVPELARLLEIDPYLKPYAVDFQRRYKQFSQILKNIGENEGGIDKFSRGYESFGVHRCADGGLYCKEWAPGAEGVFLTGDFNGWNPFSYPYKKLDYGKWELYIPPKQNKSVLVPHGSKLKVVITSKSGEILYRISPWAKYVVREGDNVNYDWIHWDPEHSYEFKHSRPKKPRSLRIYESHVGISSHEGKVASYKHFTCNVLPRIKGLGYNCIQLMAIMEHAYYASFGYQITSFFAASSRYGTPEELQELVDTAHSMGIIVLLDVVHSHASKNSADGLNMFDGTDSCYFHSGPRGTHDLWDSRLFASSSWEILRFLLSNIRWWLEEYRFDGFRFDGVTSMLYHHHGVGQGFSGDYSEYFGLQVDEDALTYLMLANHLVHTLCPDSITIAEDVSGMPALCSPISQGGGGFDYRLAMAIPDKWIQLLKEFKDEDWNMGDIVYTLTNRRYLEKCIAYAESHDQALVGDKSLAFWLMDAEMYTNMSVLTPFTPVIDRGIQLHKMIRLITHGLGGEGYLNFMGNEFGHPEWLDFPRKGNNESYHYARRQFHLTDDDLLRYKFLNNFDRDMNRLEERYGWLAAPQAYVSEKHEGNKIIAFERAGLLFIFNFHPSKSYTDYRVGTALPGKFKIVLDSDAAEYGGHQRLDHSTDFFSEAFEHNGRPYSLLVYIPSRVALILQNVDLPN
Source text: It has been possible to observe that the molecules of the present invention are capable of regulating the activity of the Glycogen Branching Enzyme 1 (GBE1) and its joining to membranes (Table 9). Alterations in this enzyme give rise to a neurodegenerative process known as APBD (Kakhlon et al., 2013). It has been described that a modification of tyrosine in position 329 of this enzyme (Y329S) causes a reduction in the activity of GBE1. This gives rise to a lower branching of glycogen, which precipitates forming […] which interfere with cell activity (Kakhlon et al., 2013). This gives rise to problems in the function of certain organs, to motor problems and, in some cases, to cognitive decline. We have been able to verify that the hydroxy-triglycerides of the present invention are capable of regulating the joining of native GBE1 (wild type, wt) and with the variant Y329S to membranes and to increase the activity of the form Y329S, which is very low in normal conditions (Table 9). For this reason, the molecules of the present invention are effective for the prevention and treatment of the polyglucosan bodies disease, APBD.

[16] = system: NCI1975D (lung); assay: growth inhibition of human tumour cells, 72 h incubation; format: cell-based; conditions: 72 hours of incubation
Procedure: as §1

Structure (SMILES) | pIC50 [1] | pIC50 [2] | pIC50 [3] | pIC50 [4] | pIC50 [5] | pIC50 [6] | pIC50 [7] | pIC50 [8] | pIC50 [9] | pIC50 [10] | pIC50 [11] | pIC50 [12] | pIC50 [13] | ΔWeight, change in weight [14] | Activity Y329S [15] | pIC50 [16] | also measured
CCCCCC=CCC=CCC=CCCCC(O)C(=O)OCC(COC(=O)C(O)CCCC=CCC=CCC=CCCCCC)OC(=O)C(O)CCCC=CCC=CCC=CCCCCC (centres unmarked) [TGM3G, 1,2,3-tri(2′-hydroxy-octadec-6′,9′,12′-trienoyl)glycerol] | 4.41 | 4.09 | 4.38 | 4.23 | 4.12 | 3.73 | 3.76 | 3.73 | 3.91 | 4.03 | 4.34 | 3.81 | 4.55 | -12 ± 3 g | 9 ± 4% |  | 
CCCCCC=CCC=CCCCCCCC(O)C(=O)OCC(COC(=O)C(O)CCCCCCC=CCC=CCCCCC)OC(=O)C(O)CCCCCCC=CCC=CCCCCC (centres unmarked) [TGM2, 1,2,3-tri(2′-hydroxy-octadec-9′,12′-dienoyl)glycerol] | 5.70 | 4.51 | 3.94 | 3.88 | 3.83 | 4.60 | 4.17 | 4.24 | 4.11 | 4.38 | 4.51 | 4.13 | 4.25 | -32 ± 6 g | 11 ± 2% | 4.27 | 
CCC=CCC=CCC=CCC=CCC=CCC=CCC(O)C(=O)OCC(COC(=O)C(O)CC=CCC=CCC=CCC=CCC=CCC=CCC)OC(=O)C(O)CC=CCC=CCC=CCC=CCC=CCC=CCC (centres unmarked) [TGM6, 1,2,3-tri(2′-hydroxy-docosa-4′,7′,10′,13′,16′,19′-hexanoyl)glycerol] | 6.00 | 4.74 | 5.22 | 4.47 | 4.92 | 4.52 | 4.60 | 5.05 | 4.54 | 5.30 | 4.39 | 5.15 | 4.44 | -19 ± 4 g | 5 ± 1% | 4.68 | 
CCC=CCC=CCC=CCC=CCC=CCCC(O)C(=O)OCC(COC(=O)C(O)CCC=CCC=CCC=CCC=CCC=CCC)OC(=O)C(O)CCC=CCC=CCC=CCC=CCC=CCC (centres unmarked) [TGM5, 1,2,3-tri(2′-hydroxy-eicosa-5′,8′,11′,14′,17′-pentaenoyl)glycerol] | 5.40 | 4.77 | 4.89 | 5.10 | 4.72 | 4.28 | 5.05 | 4.74 | 4.64 | 4.68 | 4.59 | 4.54 | 4.37 | -9 ± 3 g | 16 ± 3% | 4.85 | 
CCCCCC(O)C(=O)OCC(COC(=O)C(O)CCCCC)OC(=O)C(O)CCCCC (centres unmarked) [TGM0, 1,2,3-tri(2′-hydroxyheptanoyl)glycerol] |  |  |  |  |  |  |  |  |  |  |  |  |  | -4 ± 2 g | 20 ± 2% |  | pIC50 ([1]; Homo sapiens, A549): 3.92; pIC50 ([2]; Homo sapiens, BXPC-3): 3.53; pIC50 ([4]; Homo sapiens, HT-29): 3.58; pIC50 ([5]; Homo sapiens, HeLa): 3.70; pIC50 ([6]; Homo sapiens, HepG2): 3.49; pIC50 ([7]; Homo sapiens, Jurkat): 3.75; pIC50 ([8]; Homo sapiens, MDA-MB-231): 3.60; pIC50 ([9]; Homo sapiens, MIA PaCa-2): 3.55; pIC50 ([16]; Homo sapiens): 3.49; pIC50 ([10]; Homo sapiens): 3.64; pIC50 ([11]; Homo sapiens, SF767): 3.56; pIC50 ([12]; Homo sapiens, SH-SY5Y): 3.60; pIC50 ([13]; Homo sapiens): 3.47
CCCCCCCCC=CCCCCCCC(O)C(=O)OCC(COC(=O)C(O)CCCCCCC=CCCCCCCCC)OC(=O)C(O)CCCCCCC=CCCCCCCCC (centres unmarked) [TGM1, 1,2,3-tri(2′-hydroxy-octadec-9′-enoyl)glycerol] | 4.54 | 3.68 | 3.61 | 4.03 | 3.74 | 4.06 | 4.49 | 3.89 | 3.84 | 3.62 | 3.55 | 3.89 | 3.59 | -22 ± 5 g | 7 ± 1% | 3.53 | 
CCCCCC=CCC=CCC=CCC=CCCC(O)C(=O)OCC(COC(=O)C(O)CCC=CCC=CCC=CCC=CCCCCC)OC(=O)C(O)CCC=CCC=CCC=CCC=CCCCCC (centres unmarked) [TGM4, 1,2,3-tri(2′-hydroxy-eicosa-5′,8′,11′,14′-tetraenoyl)glycerol] | 6.05 | 4.14 | 4.49 | 4.96 | 5.22 | 4.66 | 3.82 | 4.44 | 4.37 | 4.74 | 4.68 | 4.57 | 4.77 | -25 ± 5 g | 4 ± 1% | 5.00 | 
